Reference: patent publication US20250339546A1, “GLIOBLASTOMA TUMOR GROWTH INHIBITON BY SAT1 KNOCKDOWN” (BIOMARK CANCER SYSTEMS, INC., priority 2021, published 2025)
Read-outs that look alike come from different tables or passages of the source. Values belong to the molecule of their own block, whether it stands above or below them.

Tests used:
U251 glioblastoma cells = test: Cell viability/proliferation MTT assay, U251; assay type: cell-based, human; details: combined with SAT1 knockdown, DOX 0.1 μM, TOPO 0.2 μM
Procedure: (§1) Cells were transfected in T-25 flask as discussed above. Forty-eight hours after transfection, the cells were seeded in 96-well plates (5000 cells/well). After 24-hours, the cells were exposed to no treatment or either 10 Gy radiation (RS-2000, Rad Source Technologies, Inc., Buford, GA, USA) or anticancer drugs carmustine (i.e., BCNU™ or BiCNU™) (100 μM), Doxorubicin (0.1 μM) and Topotecan (0.2 μM). After 24 hours, the media and treatments were removed and replaced with fresh media and cultured for 48 hours. The percentage of viable cells was determined using MTT assay (Norouzi et al, 2020).

macrophage cells (ANA-1) = test: Cell viability/proliferation MTT assay, ANA-1; assay type: cell-based, murine; details: 0.1 μM
Procedure: as §1

BBB = test: Bidirectional BBB permeability in the BBB microfluidic model
Procedure: Permeability coefficients are the mean±SD of 3 microfluidic units.
Finally, the bidirectional BBB permeability of amantadine and rimantadine, as well as their metabolites, was evaluated in the previously described model.

SAT1 [1] = test: SAT1 induction in U251 cells (mRNA and Western blot); assay type: cell-based, human; details: 10 μM, 24 and 48 hours
Text: SAT1 expression was next evaluated in U251 cells.

NAT2 = NAT2 gene and protein expression in U251 cells; assay type: cell-based, human; details: 10 μM, 24 h and 48 h
NAT1 = NAT1 gene and protein expression in U251 cells; assay type: cell-based, human; details: 10 μM, 24 h and 48 h
SAT1 [2] = biological target: SAT1 (Homo sapiens, UniProt P21673)
Procedure: FIG. 17C SAT1 induction was confirmed by Western blot analysis of the protein sample. (mean=+SD, n=3).
Next, SAT1 activity was assessed in U251 cells via production of acetylated-amantadine after treatment with the SAT1 substrate amantadine, or the production of acetylated-rimantadine after treatment with the SAT1 substrate rimantadine.

Sequence of SAT1 (Homo sapiens, UniProt P21673) (P21673 whole entry): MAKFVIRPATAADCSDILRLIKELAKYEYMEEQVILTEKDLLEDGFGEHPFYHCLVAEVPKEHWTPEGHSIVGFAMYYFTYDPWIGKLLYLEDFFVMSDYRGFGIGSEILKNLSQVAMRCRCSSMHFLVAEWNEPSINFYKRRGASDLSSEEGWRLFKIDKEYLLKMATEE

SMILES: COc1cccc2c1C(=O)c1c(O)c3c(c(O)c1C2=O)C[C@@](O)(C(=O)CO)C[C@@H]3O[C@H]1C[C@H](N)[C@H](O)[C@H](C)O1 [DOX, Doxorubicin]
cell viabilities/proliferation (U251 glioblastoma cells): lowest | sensitivity of cells to treatment (macrophage cells (ANA-1)): particularly sensitive

BBB permeability (BBB): able to cross | BBB permeability relative to amantadine (BBB): slightly more permeable
SMILES: CC(N)C12CC3CC(CC(C3)C1)C2 (stereo not drawn) [rimantadine]

SMILES: CCNCCCNCCCNCCCNCC [DENSPM, N(1),N(11)-diethylnorspermine]
SAT1 gene and protein expression (SAT1 [1]): enhanced | NAT2 gene and protein expression levels (NAT2): did not significantly change | NAT1 gene and protein expression levels (NAT1): did not significantly change

SMILES: CC[C@@]1(O)C(=O)OCc2c1cc1n(c2=O)Cc2cc3c(CN(C)C)c(O)ccc3nc2-1 [TOPO, Topotecan]
cell viabilities/proliferation (U251 glioblastoma cells): lowest

earliest detection after induction (SAT1 [2]): 5 min | earliest detection after induction, in some cases (SAT1 [2]): 3 min
SMILES: CC(=O)NC(C)C12CC3CC(CC(C3)C1)C2 (stereo not drawn) [Ac-rimantadine, acetylated-rimantadine]
BBB permeability (BBB): able to cross the BBB from the brain to blood efficiently

earliest detection after induction (SAT1 [2]): 5 min | earliest detection after induction, in some cases (SAT1 [2]): 3 min
SMILES: CC(=O)NC12CC3CC(CC(C3)C1)C2 [Ac-amantadine, acetylated-amantadine]
BBB permeability (BBB; from the brain to blood): able to cross the BBB from the brain to blood efficiently

BBB permeability (BBB; from blood to the brain): able to cross
SMILES: NC12CC3CC(CC(C3)C1)C2 [amantadine]
